Assay [1] has as its target T1, Ribosomal S6 kinase 2 (RSK2) (Mus musculus, UniProt P18654).
T1 construct: gene Rps6ka3; full-length mouse RSK2 (amino acids 1–740), expressed in E. coli, phosphorylated in vitro by ERK2 and PDK1
Nature of the assay: ADP-Glo kinase assay with S6 peptide at […] ATP; also thermal shift (SYPRO Orange, ~[…]°C). It counts as biochemical. (In ADP-Glo the light output rises with the ADP produced.)

Assay [2] concerns the target full-length murine ribosomal S6 kinase 2 (RSK2) (mouse) (UniProt P18654). Nature of the assay: dynamic light scattering; RSK2 at ~0.7 mg/ml, 10°C, 50 mM Tris pH 8.0, 500 mM NaCl, 5 mM 2-mercaptoethanol; dimer of monomers.

For orientation: IC50 means the point on the concentration scale where inhibition reaches its midpoint. As a reminder, the stoichiometry N is a count of units in the complex or per binding partner.

T1 sequence (P18654 whole entry, the tested form may be a part): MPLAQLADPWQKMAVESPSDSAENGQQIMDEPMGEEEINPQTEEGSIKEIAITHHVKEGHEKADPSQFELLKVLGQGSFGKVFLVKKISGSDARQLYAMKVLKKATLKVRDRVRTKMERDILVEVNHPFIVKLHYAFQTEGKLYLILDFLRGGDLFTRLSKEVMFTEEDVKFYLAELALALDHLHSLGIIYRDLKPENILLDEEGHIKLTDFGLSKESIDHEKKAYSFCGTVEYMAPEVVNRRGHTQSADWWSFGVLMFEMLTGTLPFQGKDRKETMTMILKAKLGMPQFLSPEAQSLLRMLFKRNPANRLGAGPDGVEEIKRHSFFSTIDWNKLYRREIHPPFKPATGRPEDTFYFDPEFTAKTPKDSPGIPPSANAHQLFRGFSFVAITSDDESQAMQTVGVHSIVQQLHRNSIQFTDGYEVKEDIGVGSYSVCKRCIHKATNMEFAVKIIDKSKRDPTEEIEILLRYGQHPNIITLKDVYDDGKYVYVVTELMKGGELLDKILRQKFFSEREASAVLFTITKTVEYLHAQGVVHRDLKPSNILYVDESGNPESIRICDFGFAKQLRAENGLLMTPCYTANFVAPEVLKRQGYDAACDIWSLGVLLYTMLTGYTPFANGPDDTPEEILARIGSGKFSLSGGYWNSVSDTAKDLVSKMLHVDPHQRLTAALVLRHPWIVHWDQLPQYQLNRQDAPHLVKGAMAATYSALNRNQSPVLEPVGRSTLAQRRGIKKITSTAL

On to `CC(=O)O[C@@H]1[C@@H](OC(C)=O)[C@@H](O)[C@H](Oc2c(-c3ccc(O)cc3)oc3cc(O)cc(O)c3c2=O)O[C@H]1C` [SL0101], for which, in assay [1], the IC50 is ~8 µM. For the compound “full-length murine ribosomal S6 kinase 2 (RSK2) (from UniProt P18654 1-740) (enzyme)”, the stoichiometry N in assay [2] is 2.
